We go through 23 substances from patent US9862742B2, “Tricyclic nucleosides and oligomeric compounds prepared therefrom” (UNIVERSITAT BERN, priority 2013, dated 2018).

Data set [1] relates to complementary RNA. Put plainly: Tm study of oligomeric compounds duplexed with complementary RNA (UV melting). The format is binding. The following applies: 1.2 μM, 150 mM NaCl, 10 mM phosphate, 0.1 mM EDTA, pH 7; for ΔTm/mod (° C.) vs RNA: referenced to unmodified DNA or to the fully modified tricyclo-DNA oligomer. Here is the method: (§1) The relative ability of a chemically-modified oligomeric compound to bind to complementary nucleic acid strands, as compared to natural oligonucleotides, is measured by obtaining the melting temperature of a hybridization complex of said chemically-modified oligomeric compound with its complementary unmodified target nucleic acid. The melting temperature (Tm), a characteristic physical property of double helixes, denotes the temperature in degrees centigrade at which 50% helical versus coiled (unhybridized) forms are present. Tm (also commonly referred to as binding affinity) is measured by using the UV spectrum to determine the formation and breakdown (melting) of hybridization. Base stacking, which occurs during hybridization, is accompanied by a reduction in UV absorption (hypochromicity). Consequently a reduction in UV absorption indicates a higher Tm. Following standard automated DNA synthesis protocols oligomeric compounds were prepared comprising one or more tricyclic nucleosides for Tm studies. After cleavage from the solid support, the oligomeric compounds were purified by ion exchange HPLC and analyzed by LCMS using standard procedures. The Tm of the modified 10 mer oligomeric compounds were compared to an unmodified 10 mer DNA oligonucleotide when duplexed to either DNA or RNA. Tm's were determined using a Cary 100 Bio spectrophotometer with the Cary Win UV thermal program was used to measure absorbance vs. temperature. For the Tm experiments, the oligomeric compounds were prepared at a concentration of 1.2 μM in a buffer of 150 mM NaCl, 10 mM phosphate, 0.1 mM EDTA at pH 7. The concentration determined at 85° C. was 1.2 μM after mixing of equal volumes of selected oligomeric compound and complementary RNA or DNA. The oligomeric compounds were hybridized with a complementary RNA or DNA by heating the duplex to 90° C. for 5 minutes and then cooling to room temperature. Tm measurements were taken using a spectrophotometer while the duplex solution was heated in a cuvette at a rate of 0.5° C./min starting at 15° C. until the temperature was 85° C. Tm values were determined using Vant Hoff calculations (A260 vs temperature curve) using non self-complementary sequences where the minimum absorbance related to the duplex and the maximum absorbance related to the non-duplex single strand are manually integrated into the program.

For data set [2], the system named is complementary DNA. Put plainly: Tm study of oligomeric compounds duplexed with complementary DNA (UV melting). It counts as binding. The following applies: 1.2 μM, 150 mM NaCl, 10 mM phosphate, 0.1 mM EDTA, pH 7; for ΔTm/mod (° C.) vs DNA: referenced to unmodified DNA or to the fully modified tricyclo-DNA oligomer. Here is the method:
as §1

Data set [3] relates to exon 23 of the mouse dystrophin gene. Put plainly: Exon 23 skipping in primary mdx cells, gymnotic delivery, RT-PCR/nested PCR and gel electrophoresis. It counts as cell-based. Particulars: for exon skipping (exon 23, gel of nested PCR products): 50 μg (approx 9 nmol) oligonucleotide, no transfection agent (gymnosis), harvested 4 days after transfection. The source says: The mdx mouse represents a model for the human genetic disease Duchenne muscular dystrophy. It contains a mutation in exon 23 of the mouse dystrophin gene which gives rise to a premature stop codon. As a consequence no functional dystrophin mRNA and dystrophin protein is produced. It is known in the field (Lu et al., Proc Natl Acad Sci USA 2005, 102, 198-203) that administration of an antisense oligonucleotide designed to bind to the exon/intron junction of exon 23 leads to skipping of exon 23 during mRNA splicing and thus to a functional variant of the mouse dystrophin protein.
To test the exon skipping potential of A20-A23, mdx primary cells (mdx mouse) were transfected without transfection agents (gymnosis) with 50 μg (approx 9 nmol) of each oligonucleotide A20 to A23. Cells were harvested 4 days after transfection and the RNA was extracted. RT-PCR and nested PCR around exon 23 (EX20F/Ex26R) was performed and the products analyzed by gel electrophoresis (FIG. 1).
The slower moving band correspond to nonskipped RNA (including […]) while the faster moving band corresponds to skipped ([…] excluded) RNA.

Oligonucleotides are written 5' to 3', each unit as a sugar letter and its base; * is a phosphorothioate linkage, no mark a phosphodiester; rarer units and linkages stand in square brackets, end groups in braces. Plain capitals give the bases only. [6'F-TC-N] = 6'-fluorinated tricyclic nucleoside, subtype b of the publication (N: the base); [F-tcDNA] = 6'-fluoro tricyclic (tricyclo-DNA) nucleoside; [tcDNA-N] = tricyclo-DNA nucleoside (N: the base); [tcDNA] = tricyclo-DNA nucleoside; d = 2'-deoxy (DNA); {P} = phosphate

As for “01 (AACTGTCACG; unmodified DNA) [compound 01]”, the “ΔTm/mod (° C.) vs RNA” value in data set [1] turned out to be 0 °C. The “ΔTm/mod (° C.) vs DNA” value in data set [2] amounted to 0 °C. For “02 (AACTGTCACG; sugars from the 5' end d5 [tcDNA]1 d4, all phosphodiester, methylation of C not given here) [compound 02]”, the “ΔTm/mod (° C.) vs RNA” value in data set [1] was “+0.9 °C”. Further, in data set [2], the “ΔTm/mod (° C.) vs DNA” value was “+2.1 °C”. In the case of “03 (dAdAdCdTdG[6'F-TC-T]dCdAdCdG) [compound 03]”, in data set [1], the “ΔTm/mod (° C.) vs RNA” value was “+0.4 °C”. Moreover, the “ΔTm/mod (° C.) vs DNA” value in data set [2] was “+2.0 °C”. On to “04 (dAdAdC[6'F-TC-T]dGdTdCdAdCdG) [compound 04]”, for which the “ΔTm/mod (° C.) vs RNA” value in data set [1] is “+0.7 °C”. In data set [2], the “ΔTm/mod (° C.) vs DNA” value was “+1.6 °C”. Take “05 (dAdAdC[6'F-TC-T]dG[6'F-TC-T]dCdAdCdG) [compound 05]”: in data set [1], the “ΔTm/mod (° C.) vs RNA” value amounted to 0 °C. Also, the “ΔTm/mod (° C.) vs DNA” value in data set [2] was 0 °C.

As for “06 (pA_{a}A_{a}C_{a}T_{a}G_{a}T_{a}C_{a}A_{a}C_{a}G_{a}; fully modified with subtype a nucleosides (not given here), 5'-phosphate, phosphodiester, as printed in the source, key not given here) [compound 06]”, the “ΔTm/mod (° C.) vs RNA” value in data set [1] was found to be 0 °C. In addition, the “ΔTm/mod (° C.) vs DNA” value in data set [2] was 0 °C.

On to “07 (pA_{a}A_{a}C_{a}T_{a}G_{a}T_{b}C_{a}A_{a}C_{a}G_{a}; as printed in the source, key not given here) [compound 07]”, for which the “ΔTm/mod (° C.) vs RNA” value in data set [1] is “+0.7 °C”. Further, the “ΔTm/mod (° C.) vs DNA” value in data set [2] turned out to be 0 °C. For “08 (pA_{a}A_{a}C_{a}T_{b}G_{a}T_{a}C_{a}A_{a}C_{a}G_{a}; as printed in the source, key not given here) [compound 08]” the same measures were “+0.3 °C” and −1.6 °C. As to “09 (pA_{a}A_{a}C_{a}T_{b}G_{a}T_{b}C_{a}A_{a}C_{a}G_{a}; as printed in the source, key not given here) [compound 09]”, in data set [1], the “ΔTm/mod (° C.) vs RNA” value is −0.2 °C. Besides, the “ΔTm/mod (° C.) vs DNA” value in data set [2] is −1.8 °C.

In the case of “10 (AACTGT_{c}CACG; as printed in the source, key not given here) [compound 10]”, the “ΔTm/mod (° C.) vs RNA” value in data set [1] was “+0.9 °C”. Besides, the “ΔTm/mod (° C.) vs DNA” value in data set [2] was “+1.8 °C”.

“12 (AACT_{c}GT_{c}CACG; as printed in the source, key not given here) [compound 12]”: the “ΔTm/mod (° C.) vs RNA” value in data set [1] is “+2.8 °C”. Further, the “ΔTm/mod (° C.) vs DNA” value in data set [2] was “+1.8 °C”. Turning to “13 (AACTGT_{d}CACG; as printed in the source, key not given here) [compound 13]”, the “ΔTm/mod (° C.) vs RNA” value in data set [1] is −4.7 °C. For the same substance, the “ΔTm/mod (° C.) vs DNA” value in data set [2] was −4.5 °C.

As to “14 (AACT_{d}GTCACG; as printed in the source, key not given here) [compound 14]”, the “ΔTm/mod (° C.) vs RNA” value in data set [1] was −2.5 °C. Further, the “ΔTm/mod (° C.) vs DNA” value in data set [2] is −2.7 °C. For “15 (AACT_{d}GT_{d}CACG; as printed in the source, key not given here) [compound 15]” the same measures were −3.0 °C and −4.3 °C. “16 (GCATTTTTACCG; unmodified DNA) [compound 16]”: the “ΔTm/mod (° C.) vs RNA” value in data set [1] was found to be 0 °C. The “ΔTm/mod (° C.) vs DNA” value in data set [2] was 0 °C. Regarding “17 (GCAT_{d}T_{d}T_{d}T_{d}T_{d}ACCG; as printed in the source, key not given here) [compound 17]”, the “ΔTm/mod (° C.) vs RNA” value in data set [1] is “+0.6 °C”. Moreover, the “ΔTm/mod (° C.) vs DNA” value in data set [2] was -1.1 °C. Regarding “SEQ ID NO. 01: unmodified 10 mer DNA oligonucleotide AACTGTCACG, phosphodiester (unmodified DNA) [reference compound]”, in data set [1], the “Tm duplexed with RNA” value stood at 45.1 °C. The “Tm duplexed with DNA” value in data set [2] was determined as 43.5 °C. Turning to “SEQ ID NO. 06: pAaAaCaTaGaTaCaAaCaGa, fully modified tricyclo-DNA, 5′-phosphorylated (AACTGTCACG; all [tcDNA-N], all phosphodiester, 5' {P}, methylation of C not given here) [reference compound]”, the “Tm duplexed with RNA” value in data set [1] came to 66.2 °C. Also, the “Tm duplexed with DNA” value in data set [2] was 55.0 °C. On to “SEQ ID NO. 07: pAaAaCaTaGaTbCaAaCaGa, tricyclo-DNA backbone with one 6′-fluoro residue, 5′-phosphorylated (AACTGTCACG; sugars from the 5' end [tcDNA]5 [F-tcDNA]1 [tcDNA]4, all phosphodiester, 5' {P}, methylation of C not given here)”, for which the “ΔTm/mod (° C.) vs RNA” value in data set [1] was “up to +0.7 °C”. Consider “SEQ ID NO. 16: unmodified oligonucleotide GCATTTTTACCG (unmodified DNA) [reference compound]”, for which the “Tm duplexed with RNA” value in data set [1] is 42.2 °C. In addition, in data set [2], the “Tm duplexed with DNA” value came to 45.6 °C. Turning to “SEQ ID NO. 17: GCATdTdTdTdTdACCG, 5 consecutive arabinofluoro residues (GCATTTTTACCG; listed as DNA, chemistry not fully specified)”, the “ΔTm/mod (° C.) vs RNA” value in data set [1] was “+0.6 °C”.

For “SEQ ID NO. 19: pAaAaCaCaTaCaGaGaCaTaTaAaCaCaTa, 15-mer tricyclo-DNA, PS linkages, 5′-phosphate, no fluorine substituents ({P}-[tcDNA-A]*[tcDNA-A]*[tcDNA-C]*[tcDNA-C]*[tcDNA-T]*[tcDNA-C]*[tcDNA-G]*[tcDNA-G]*[tcDNA-C]*[tcDNA-T]*[tcDNA-T]*[tcDNA-A]*[tcDNA-C]*[tcDNA-C]*[tcDNA-T]) [reference compound]”, the “exon skipping (exon 23, gel of nested PCR products)” value in data set [3] is recorded as “substantial exon skipping”. As for “SEQ ID NO. 21: pAaAaCbCbTbCbGaGaCbTbTbAaCbCbTb, fluoro-oligonucleotide 15-mer, PS linkages, 5′-phosphate, C is 5-methylcytosine (AACCTCGGCTTACCT; fluoro tricyclo-DNA, PS, 5′-phosphate, 5-methylcytosine; Sequence for biophysical analysis; (1)..(1) tricyclic nucleoside according to fomula I with T1 being phosphate, T2 being phosphorothioate, Bx being adenine and the other substituents being hydrogen; (2)..(2) tricyclic nucleoside according to fomula I with T1 and T2 being phosphorothioate, Bx being adenine and the other substituents being hydrogen; (3)..(3) tricyclic nucleoside according to fomula)”, the “exon skipping (exon 23, gel of nested PCR products)” value in data set [3] is on record as “substantial exon skipping”. In addition, the “exon skipping, qualitative comparison with A21” value in data set [3] (50 μg, gymnosis, 4 days) is on record as “slightly superior compared to A21”.
